Results: patent US20120270929A1, “MODULATION OF TTC39 EXPRESSION TO INCREASE HDL” (ISIS Pharmaceuticals, Inc., priority 2009, published 2012)
Oligonucleotides are written 5' to 3', each unit as a sugar letter and its base; * is a phosphorothioate linkage, no mark a phosphodiester; rarer units and linkages stand in square brackets, end groups in braces. Plain capitals give the bases only. e = 2'-O-(2-methoxyethyl) (MOE); [5mC] = 5-methylcytosine; d = 2'-deoxy (DNA)

Legend:
murine TTC39B mRNA [1] = assay: Antisense inhibition of murine TTC39B in mouse primary hepatocytes, single dose; type: cell-based; conditions: 100 nM, cytofectin, ~24 h, vs untreated control
Experimental: Antisense oligonucleotides targeted to a TTC39B nucleic acid were tested for their effects on TTC39B mRNA in vitro. Cultured mouse primary hepatocytes at a density of 10,000 cells per well were transfected using cytofectin reagent with 100 nM antisense oligonucleotide. After a treatment period of approximately 24 hours, RNA was isolated from the cells and TTC39B mRNA levels were measured by quantitative real-time PCR. TTC39B mRNA levels were adjusted according to total RNA content, as measured by RIBOGREEN®. Results are presented as percent inhibition of TTC39B, relative to untreated control cells.
The chimeric antisense oligonucleotides in Tables 1 and 2 were designed as 5-10-5 MOE gapmers. The gapmers are 20 nucleotides in length, wherein the central gap segment is comprised of 10 2′-deoxynucleotides and is flanked on both sides (in the 5′ and 3′ directions) by wings comprising 5 nucleotides each. Each nucleotide in the 5′ wing segment and each nucleotide in the 3′ wing segment has a 2′-MOE modification. The internucleoside linkages throughout each gapmer are phosphorothioate (P═S) linkages. All cytosine residues throughout each gapmer are 5-methylcytosines. “Target start site” indicates the 5′-most nucleotide to which the gapmer is targeted. “Target stop site” indicates the 3′-most nucleotide to which the gapmer is targeted. Each gapmer listed in Table 1 is targeted to SEQ ID NO: 6 (GENBANK Accession No. NM_027238.2) and each gapmer listed in Table 2 is targeted to SEQ ID NO: 10 (the complement of GENBANK Accession No. NT—039260.7 truncated at nucleotides 22491001 to 22601000), SEQ ID NO: 11 (GENBANK Accession No. BY244623.1), SEQ ID NO: 12 (GENBANK Accession No. BY260936), SEQ ID NO: 13 (GENBANK Accession No. BM935568.1) or SEQ ID NO: 14 (GENBANK Accession No. BY728780.1).

murine TTC39B mRNA [2] = assay: Dose-dependent antisense inhibition of murine TTC39B in mouse primary hepatocytes (Example 2); type: cell-based; conditions: cytofectin, ~16 h
Experimental: Cells were plated at a density of 10,000 cells per well and transfected using cytofectin reagent with 25 nM, 50 nM, 100 nM, and 200 nM concentrations of antisense oligonucleotide, as specified in Table 3. After a treatment period of approximately 16 hours, RNA was isolated from the cells and TTC39B mRNA levels were measured by quantitative real-time PCR. Murine primer probe set mTtc39b_LTS00287 (forward sequence: […], incorporated herein as SEQ ID NO: 94; reverse sequence: […], incorporated herein as SEQ ID NO: 95; probe sequence: […], incorporated herein as SEQ ID NO: 96) was used to measure mRNA levels. TTC39B mRNA levels were adjusted according to total RNA content, as measured by RIBOGREEN®. Results are presented as percent inhibition of TTC39B, relative to untreated control cells.

[3] = gapmers targeted to SEQ ID NO: 6
[4] = gapmers targeted to SEQ ID NO: 10-14

Row | Sequence | % inhibition of murine TTC39B mRNA (murine TTC39B mRNA [1]; [3]) | % inhibition of murine TTC39B mRNA (murine TTC39B mRNA [1]; [4]) | further results
1 | AATGCCACCACCTTCAACCA (antisense eA*eA*eT*eG*e[5mC]*d[5mC]*dA*d[5mC]*d[5mC]*dA*d[5mC]*d[5mC]*dT*dT*d[5mC]*eA*eA*e[5mC]*e[5mC]*eA) [ISIS 447138] | 65% | – | percent inhibition of TTC39B mRNA (murine TTC39B mRNA [2]; 25 nM): 20%; percent inhibition of TTC39B mRNA (murine TTC39B mRNA [2]; 50 nM): 49%; percent inhibition of TTC39B mRNA (murine TTC39B mRNA [2]; 100 nM): 68%; percent inhibition of TTC39B mRNA (murine TTC39B mRNA [2]; 200 nM): 86%
2 | ATGCCATTCTGGATGTCCTG (antisense eA*eT*eG*e[5mC]*e[5mC]*dA*dT*dT*d[5mC]*dT*dG*dG*dA*dT*dG*eT*e[5mC]*e[5mC]*eT*eG) [ISIS 447106] | 70% | – | percent inhibition of TTC39B mRNA (murine TTC39B mRNA [2]; 25 nM): 41%; percent inhibition of TTC39B mRNA (murine TTC39B mRNA [2]; 50 nM): 55%; percent inhibition of TTC39B mRNA (murine TTC39B mRNA [2]; 100 nM): 78%; percent inhibition of TTC39B mRNA (murine TTC39B mRNA [2]; 200 nM): 87%
3 | GAGATCAGTTTCTGATGAAA (antisense eG*eA*eG*eA*eT*d[5mC]*dA*dG*dT*dT*dT*d[5mC]*dT*dG*dA*eT*eG*eA*eA*eA) [ISIS 447169] | – | 67% | percent inhibition of TTC39B mRNA (murine TTC39B mRNA [2]; 25 nM): 17%; percent inhibition of TTC39B mRNA (murine TTC39B mRNA [2]; 50 nM): 43%; percent inhibition of TTC39B mRNA (murine TTC39B mRNA [2]; 100 nM): 65%; percent inhibition of TTC39B mRNA (murine TTC39B mRNA [2]; 200 nM): 81%
4 | GAGTCCACCTTTGATGAAGT (antisense eG*eA*eG*eT*e[5mC]*d[5mC]*dA*d[5mC]*d[5mC]*dT*dT*dT*dG*dA*dT*eG*eA*eA*eG*eT) [ISIS 447110] | 69% | – | percent inhibition of TTC39B mRNA (murine TTC39B mRNA [2]; 25 nM): 39%; percent inhibition of TTC39B mRNA (murine TTC39B mRNA [2]; 50 nM): 52%; percent inhibition of TTC39B mRNA (murine TTC39B mRNA [2]; 100 nM): 77%; percent inhibition of TTC39B mRNA (murine TTC39B mRNA [2]; 200 nM): 87%
5 | GCGCCTTCCCGGAGCTGCAG (antisense eG*e[5mC]*eG*e[5mC]*e[5mC]*dT*dT*d[5mC]*d[5mC]*d[5mC]*dG*dG*dA*dG*d[5mC]*eT*eG*e[5mC]*eA*eG) [ISIS 447116] | 56% | – | –
6 | GCTTACCTTGGACCATTTAC (eG*e[5mC]*eT*eT*eA*d[5mC]*d[5mC]*dT*dT*dG*dG*dA*d[5mC]*d[5mC]*dA*eT*eT*eT*eA*e[5mC]; antisense) [ISIS 447173] | – | 59% | –
7 | GGAGATGTGTGTACGGCAGC (antisense eG*eG*eA*eG*eA*dT*dG*dT*dG*dT*dG*dT*dA*d[5mC]*dG*eG*e[5mC]*eA*eG*e[5mC]) [ISIS 447161] | – | 14% | –
8 | GGCAGAGTATAAGAATTTCT (antisense eG*eG*e[5mC]*eA*eG*dA*dG*dT*dA*dT*dA*dA*dG*dA*dA*eT*eT*eT*e[5mC]*eT) [ISIS 447133] | 56% | – | –
9 | GGCTCTGGGTTCAGCCCAGC (antisense eG*eG*e[5mC]*eT*e[5mC]*dT*dG*dG*dG*dT*dT*d[5mC]*dA*dG*d[5mC]*e[5mC]*e[5mC]*eA*eG*e[5mC]) [ISIS 447098] | 44% | – | –
10 | GGTGCCCGGACCAGCCCGCT (antisense eG*eG*eT*eG*e[5mC]*d[5mC]*d[5mC]*dG*dG*dA*d[5mC]*d[5mC]*dA*dG*d[5mC]*e[5mC]*e[5mC]*eG*e[5mC]*eT) [ISIS 447158] | – | 39% | –
11 | GTCCGATGGAGATCTAGAGA (antisense eG*eT*e[5mC]*e[5mC]*eG*dA*dT*dG*dG*dA*dG*dA*dT*d[5mC]*dT*eA*eG*eA*eG*eA) [ISIS 447102] | 84% | – | –
12 | GTTCCGGATCAGTCCGTGGA (antisense eG*eT*eT*e[5mC]*e[5mC]*dG*dG*dA*dT*d[5mC]*dA*dG*dT*d[5mC]*d[5mC]*eG*eT*eG*eG*eA) [ISIS 447132] | 58% | – | –
13 | GTTTCTTGAGCCTATAAGTC (eG*eT*eT*eT*e[5mC]*dT*dT*dG*dA*dG*d[5mC]*d[5mC]*dT*dA*dT*eA*eA*eG*eT*e[5mC]; antisense) [ISIS 447172] | – | 54% | –
14 | GTTTTTCACTTTCCACAACG (antisense eG*eT*eT*eT*eT*dT*d[5mC]*dA*d[5mC]*dT*dT*dT*d[5mC]*d[5mC]*dA*e[5mC]*eA*eA*e[5mC]*eG) [ISIS 447128] | 56% | – | –
15 | TACAGACCATGAGCTTTGAT (antisense eT*eA*e[5mC]*eA*eG*dA*d[5mC]*d[5mC]*dA*dT*dG*dA*dG*d[5mC]*dT*eT*eT*eG*eA*eT) [ISIS 447145] | 61% | – | –
16 | TAGTAATACGCCTGCATCCA (antisense eT*eA*eG*eT*eA*dA*dT*dA*d[5mC]*dG*d[5mC]*d[5mC]*dT*dG*d[5mC]*eA*eT*e[5mC]*e[5mC]*eA) [ISIS 447121] | 53% | – | –

Row | Sequence | % inhibition of murine TTC39B mRNA (murine TTC39B mRNA [1]; [3]) | % inhibition of murine TTC39B mRNA (murine TTC39B mRNA [1]; [4]) | further results
17 | TATGGAGAAGCAGATGGCCT (eT*eA*eT*eG*eG*dA*dG*dA*dA*dG*d[5mC]*dA*dG*dA*dT*eG*eG*e[5mC]*e[5mC]*eT; antisense) [ISIS 447175] | – | 56% | –
18 | TCATATTTTCATCCTGCACA (antisense eT*e[5mC]*eA*eT*eA*dT*dT*dT*dT*d[5mC]*dA*dT*d[5mC]*d[5mC]*dT*eG*e[5mC]*eA*e[5mC]*eA) [ISIS 447109] | 41% | – | –
19 | TCCAAGGCATCTTCAAAGAT (antisense eT*e[5mC]*e[5mC]*eA*eA*dG*dG*d[5mC]*dA*dT*d[5mC]*dT*dT*d[5mC]*dA*eA*eA*eG*eA*eT) [ISIS 447101] | 36% | – | –
20 | TCCACCTTGGCTGATGAACC (antisense eT*e[5mC]*e[5mC]*eA*e[5mC]*d[5mC]*dT*dT*dG*dG*d[5mC]*dT*dG*dA*dT*eG*eA*eA*e[5mC]*e[5mC]) [ISIS 447104] | 48% | – | –
21 | TCCACTCGGCTGCCCACGAG (antisense eT*e[5mC]*e[5mC]*eA*e[5mC]*dT*d[5mC]*dG*dG*d[5mC]*dT*dG*d[5mC]*d[5mC]*d[5mC]*eA*e[5mC]*eG*eA*eG) [ISIS 447100] | 62% | – | –
22 | TCCAGAGATGAAGAGCTGCT (antisense eT*e[5mC]*e[5mC]*eA*eG*dA*dG*dA*dT*dG*dA*dA*dG*dA*dG*e[5mC]*eT*eG*e[5mC]*eT) [ISIS 447131] | 60% | – | –
23 | TCCAGATCATTATGTTTACA (eT*e[5mC]*e[5mC]*eA*eG*dA*dT*d[5mC]*dA*dT*dT*dA*dT*dG*dT*eT*eT*eA*e[5mC]*eA; antisense) [ISIS 447174] | – | 50% | –
24 | TCCGGTGCGCACCCAGTACC (antisense eT*e[5mC]*e[5mC]*eG*eG*dT*dG*d[5mC]*dG*d[5mC]*dA*d[5mC]*d[5mC]*d[5mC]*dA*eG*eT*eA*e[5mC]*e[5mC]) [ISIS 447155] | – | 23% | –
25 | TCTGGAAGCATGCTCAAAAT (antisense eT*e[5mC]*eT*eG*eG*dA*dA*dG*d[5mC]*dA*dT*dG*d[5mC]*dT*d[5mC]*eA*eA*eA*eA*eT) [ISIS 447124] | 60% | – | –
26 | TCTTCACTCAGTTGTTCCAG (antisense eT*e[5mC]*eT*eT*e[5mC]*dA*d[5mC]*dT*d[5mC]*dA*dG*dT*dT*dG*dT*eT*e[5mC]*e[5mC]*eA*eG) [ISIS 447108] | 49% | – | –
27 | TGTCCGATGGAGATTGTTAA (antisense eT*eG*eT*e[5mC]*e[5mC]*dG*dA*dT*dG*dG*dA*dG*dA*dT*dT*eG*eT*eT*eA*eA) [ISIS 447164] | – | 0% | –
28 | TGTTTCCAGAAAATCCAATA (antisense eT*eG*eT*eT*eT*d[5mC]*d[5mC]*dA*dG*dA*dA*dA*dA*dT*d[5mC]*e[5mC]*eA*eA*eT*eA) [ISIS 447115] | 56% | – | –
29 | TTATACAAAAATGCCAACTC (antisense eT*eT*eA*eT*eA*d[5mC]*dA*dA*dA*dA*dA*dT*dG*d[5mC]*d[5mC]*eA*eA*e[5mC]*eT*e[5mC]) [ISIS 447129] | 34% | – | –
30 | TTCCAGCTCGGCTGCGCCAC (antisense eT*eT*e[5mC]*e[5mC]*eA*dG*d[5mC]*dT*d[5mC]*dG*dG*d[5mC]*dT*dG*d[5mC]*eG*e[5mC]*e[5mC]*eA*e[5mC]) [ISIS 447157] | – | 21% | –
31 | TTCTTACAAACATCCTAAGA (antisense eT*eT*e[5mC]*eT*eT*dA*d[5mC]*dA*dA*dA*d[5mC]*dA*dT*d[5mC]*d[5mC]*eT*eA*eA*eG*eA) [ISIS 447148] | 54% | – | –
32 | TTTGGCAGGTTTGTAAAGCG (antisense eT*eT*eT*eG*eG*d[5mC]*dA*dG*dG*dT*dT*dT*dG*dT*dA*eA*eA*eG*e[5mC]*eG) [ISIS 447107] | 61% | – | –
